Experimental data from patent publication US5091397A (priority 1988, dated 1992).
Where a name gives a salt, the structure may show the parent alone. Read-outs that look alike come from different tables or passages of the source.

Key:
[1] = biological target: muscarinic receptors; test: Radio ligand binding: displacement of the muscarinic agonist 3H-Oxotremorine-M (3H-OXO-M) from cerebral cortex membranes; design: species or system Hooded Lister rats; settings: displacement of muscarinic agonist 3H-OXO-M (2nM), rat cerebral cortex, 2mM magnesium chloride, 37° C., 30 min
[2] = biological target: muscarinic receptors; type: binding, Hooded Lister rats; settings: displacement of muscarinic antagonist 3H-QNB (0.27nM), rat cerebral cortex, 37° C., 30 min

SMILES | IC50 [1] | IC50 [2]
Cc1noc(CC2CN3CCC2CC3)n1 (racemic) [Example E2, (±) 3-[(3-Methyl-1,2,4-oxadiazol-5-yl)methyl]-1-azabicyclo[2.2.2]octane hydrochloride salt] | 1050 nM | 13000 nM
c1coc(CC2CN3CCC2CC3)n1 (racemic) [Example E3, (±) 3-(1,3-Oxazol-2-yl)methyl]-1-azabicyclo[2.2.2]octane oxalate salt] | 755 nM | 7000 nM
Nc1noc(CC23CCCN(CC2)C3)n1 (racemic) [Example E4, (±) 5-[(3-Amino-1,2,4-oxadiazol-5-yl)methyl]-1-azabicyclo[3.2.1]octane] | 580 nM | 6700 nM
c1coc(CC23CCCN(CC2)C3)c1 (racemic) [Example E12, (±) 5-[(Fur-2-yl)methyl-1-azabicyclo[3.2.1]octane oxalate salt] | 660 nM | 4000 nM
c1csc(CC2CN3CCC2CC3)n1 (racemic) [Example E17, (±) 3-((1,3-Thiazol-2-yl)methyl)-1-azabicyclo[2.2.2]octane oxalate salt] | 875 nM | –
Nc1noc(C[C@@H]2CN3CC[C@@H]2C3)n1 (relative stereo) [Example E1, (±) exo 3-[(3-Amino-1,2,4-oxadiazol-5-yl)methyl]-1-azabicyclo[2.2.1]heptane] | 36.5 nM | 7500 nM
Nc1noc(C[C@H]2CN3CC[C@@H]2C3)n1 (relative stereo) [Example E5, (±) endo 3-[(3-Amino-1,2,4-oxadiazol-5-yl)methyl]-1-azabicyclo[2.2.1]heptane] | 32 nM | 21000 nM
Cc1noc(C[C@H]2CN3CC[C@@H]2C3)n1 (relative stereo) [Example E6, (±) endo 3-(3-Methyl-1,2.4-oxadiazol-5-yl)methyl-1-azabicyclo[2.2.1]heptane oxalate salt] | 150 nM | 10200 nM
c1coc(C[C@H]2CN3CC[C@@H]2C3)n1 (relative stereo) [Example E7, (±) endo 3-(1,3-Oxazol-2-yl)methyl]-1-azabicyclo[2.2.1]heptane oxalate salt] | 42 nM | 8000 nM
c1ncc(C[C@H]2CN3CC[C@@H]2C3)o1 (relative stereo) [Example E8, (±) endo 3-(1,3-Oxazol-5-yl)methyl-1-azabicyclo[2.2.1]heptane hydrochloride salt] | 625 nM | 38000 nM
Nc1noc(C[C@@H]2C[C@@H]3CCN(C2)C3)n1 (relative stereo) [Example E9, (±) endo 3-[(3-Amino-1,2,4-oxadiazol-5-yl)methyl]-1-azabicyclo[3.2.1]octane] | 925 nM | 4600 nM
c1coc(C[C@@H]2CN3CC[C@@H]2C3)n1 (relative stereo) [Example E10, (±) exo 3-(1,3-Oxazo1-2-yl)methyl-1-azabicyclo [2.2.1]heptane oxalate salt] | 38 nM | 5600 nM
Cn1nnc(C[C@H]2CN3CC[C@@H]2C3)n1 (relative stereo) [Example E11, (±) endo 3-[(2-Methyltetrazol-5-yl)methyl]-1-azabicyclo[2.2.11]heptane oxalate salt] | 340 nM | 8000 nM
Cc1nc(C[C@H]2CN3CC[C@@H]2C3)no1 (relative stereo) [Example E15, (±) endo 3-[(5-Methyl-1,2,4-oxadiazol-3-yl)methyl-1-azabicyclo[2.2.11]heptane hydrochloride salt] | 950 nM | 30500 nM
Cc1nc(C[C@@H]2CN3CC[C@@H]2C3)no1 (relative stereo) [Example E16, (±) exo 3-[(5-Methyl-1,2,4-oxadiazol-3-yl)methyl)-1-azabicyclo[2.2.1]heptane hydrochloride salt] | 1000 nM | –
Nc1noc(CC23CCN(CC2)C3)n1 [Example E13, 4-[(3-Amino-1,2,4-oxadiazol-5-yl)methyl]-1-azabicyclo[2.2.1]heptane] | 118 nM | 85000 nM
c1coc(CC23CCN(CC2)C3)n1 [Example E14, 4-[(1,3-Oxazol-2-yl)methyl]-1-azabicyclo[2.2.1]heptane oxalate salt] | 410 nM | 74000 nM
